Data: patent US20130131062A1, “PYRIDAZINONES AND FURAN-CONTAINING COMPOUNDS” (priority 2006, published 2013)

Experiments:
[1] = tested on: H358; test: Non Small Cell Lung Cancer Proliferation Assay (Alamar Blue), dose response; settings: Homo sapiens, NCI-H358, read-out: H358 Dose Response (uM)
Experimental: (§11) This assay was performed on a fully automated linear track robotic platform (CRS F3 Robot System, Thermo Electron Corp., Ontario, Canada) utilizing several integrated peripherals for plate handling, liquid dispensing, and readout detection. […] The microplates are then placed at 37° C. for 48 hours to complete treatment of cells with compounds. Next, 5 ul of alamar blue was added using a liquid dispenser (FlexDrop Precision Dispenser, Perkin Elmer, Mass., USA) and incubated for 48 hours at 37° C. The alamar blue prompt fluorescence was measured on Victor V (Victor^3 V, Perkin Elmer, Mass., USA) and output data files were loaded into ORIS (Oncology Research Informatics System, MSKCC, NY, USA), a screening data acquisition and analysis platform. […]

[2] = tested on: H1118; test: as above; settings: Homo sapiens, read-out: H1118 Dose Response (uM)
Experimental: as §11

[3] = tested on: H1975; test: Non Small Cell Lung Cancer Proliferation Assay (Alamar Blue); assay type: cell-based, human; settings: Homo sapiens, NCI-H1975, dose response 10 μM to 5 nM
Experimental: (§1) Non Small Cell Lung Cancer cell lines are grown and maintained in Corning 175 cm2 flasks in RPMI 1640 media supplemented with 10% FBS, 1% antibiotic solution, 1% additional glutamine and pyruvate. These cells have a doubling time of 1-2 days. All cell types are adherent and grow in colonies. The cells should be kept at a density between 50,000 cells/mL-500,000 cells/mL to provide for optimum growth and adequate nutrition. The cell line should be maintained at 37° C. in a humidified atmosphere with 5% CO2 in a sterile cell culture incubator.
(§2) To perform the assay, the Non Small Cell Lung Cancer lines are diluted in media and plated into 384 well microplates at a final density of 250 cells in 45 μL. To ensure consistency and minimal pipetting error, the cells are plated using the Multidrop 384 with the following settings: Rocker Switch set at 384, Volume 45 and Column 24.
(§3) Low Controls for this assay are made by treating Non Small Cell Lung Cancer cells with 5 ul of staurosporine at 250 uM in 10% DMSO and 1% SDS. [Final concentration in this assay is 25 uM staurosporine in 1% DMSO and 0.1% SDS.]
(§4) High Controls for this assay are made by treating Non Small Cell Lung Cancer cells with 5 ul of 10% DMSO. [Final concentration in this assay is 1% DMSO].
(§5) The remaining wells of the 384 microplate may be treated with different compounds depending on the study. Important Note: All compounds for testing in this assay should be done at the final concentration of 1% DMSO.
(§6) After addition, the cells are placed in cell culture incubator at 37° C. for 48 hours for complete treatment.
(§7) After drug treatment, cytotoxicity is measured by Alamar Blue reduction. 5 μL of Alamar Blue is added to the 384 microplates using the Flexdrop.
(§8) The cells are incubated for 48 hours at 37° C. to complete the Alamar Blue reduction.
(§9) The final step in the assay is to measure the amount of Alamar Blue reduction. […] The Alamar Blue fluorescence is measured at an excitation of 530 nm and emission of 590 nm.
(§10) For the NSCLC project, the cell based assay was screened against a small molecule library of approximately 200,000 compounds. The compound library is stored in our automated robotic freezer (Biophile) at −20° C. in 100% DMSO. Compound freeze and thaw cycles are kept to a minimum. Compounds for use are diluted into the appropriate concentration and plated into 384 well microplates using our custom built low volume 384-well head tool (TPS 384, Apricot Designs Inc., CA, USA). This assay was performed on a fully automated linear track robotic platform (CRS F3 Robot System, Thermo Electron Corp., Ontario, Canada) utilizing several integrated peripherals for plate handling, liquid dispensing, and readout detection. First, non-small cell lung cancer cell lines are dispensed into 384 well microplates (Corning #3712 Tissue Culture Treated Plate, Corning, N.Y., USA) with 5 μL of test compounds at 100 uM in 10% DMSO for screening studies or 1 mM in 10% DMSO to 50 nM in 10% DMSO for dose response studies. The microplates are then placed at 37° C. for 48 hours to complete treatment of cells with compounds. Next, 5 ul of alamar blue was added using a liquid dispenser (FlexDrop Precision Dispenser, Perkin Elmer, Mass., USA) and incubated for 48 hours at 37° C. The alamar blue prompt fluorescence was measured on Victor V (Victor^3 V, Perkin Elmer, Mass., USA) and output data files were loaded into ORIS (Oncology Research Informatics System, MSKCC, NY, USA), a screening data acquisition and analysis platform.

[4] = tested on: H1650; test: as above; assay type: cell-based, human; settings: Homo sapiens, NCI-H1650, dose response 10 μM to 5 nM
Experimental: as §1, §2, §3, §4, §5, §6, §7, §8, §9, §10

[5] = tested on: H1734; test: Non Small Cell Lung Cancer Proliferation Assay (Alamar Blue), dose response; settings: Homo sapiens, NCI-H1734, read-out: H1734 Dose Response (uM)
Experimental: as §11

SMILES: Cc1ccccc1-n1ncc(Cl)c(Cl)c1=O [compound 257017]
- IC50 [1]: 0.74 µM
- IC50 [2]: 0.49 µM
- IC50 [3]: 470 nM
- IC50 [4]: 2740 nM
- IC50 [5]: 3.2 µM
